Consider seven compounds from PubChem BioAssay AID1259407 (Chemical Carcinogenesis Research Information System (CCRIS), 2018).

Activity calls are given as the source filed them. How the calls were made is not given here.

The data set has as its system CCRIS mutagenicity, Ames/micronucleus/aberration tests. In words: CCRIS mutagenicity studies.
Where [1] appears, read: Test System: AMES SALMONELLA TYPHIMURIUM, Strain/Indicator: TA98, Metabolic Activation: NONE, Method: PREINCUBATION
Setting [2] is: Test System: AMES SALMONELLA TYPHIMURIUM, Strain/Indicator: TA100, Metabolic Activation: NONE, Method: PREINCUBATION
Where [3] appears, read: Test System: AMES SALMONELLA TYPHIMURIUM, Strain/Indicator: TA1535, Metabolic Activation: NONE, Method: PREINCUBATION
[4] abbreviates: Test System: AMES SALMONELLA TYPHIMURIUM, Strain/Indicator: TA1537, Metabolic Activation: NONE, Method: PREINCUBATION

In the case of `CCCCCCCCCCCCCCCCCC(=O)NCCCC[C@@H](NC(=O)CC[C@@H](NC(=O)[C@H](C)NC(=O)[C@@H](C)O[C@H]1[C@H](O)[C@@H](CO)OC(O)[C@@H]1NC(C)=O)C(N)=O)C(=O)O` (stereo partly drawn), the mutagenic call is “inactive; negative” under setting [1]; “inactive; negative” (Test System: AMES SALMONELLA TYPHIMURIUM, Strain/Indicator: TA98, Metabolic Activation: RAT, LIVER, S-9, KC-500, Method: PREINCUBATION); “inactive; negative” under setting [2]; “inactive; negative” (Test System: AMES SALMONELLA TYPHIMURIUM, Strain/Indicator: TA100, Metabolic Activation: RAT, LIVER, S-9, KC-500, Method: PREINCUBATION); “inactive; negative” under setting [3]; “inactive; negative” (Test System: AMES SALMONELLA TYPHIMURIUM, Strain/Indicator: TA1535, Metabolic Activation: RAT, LIVER, S-9, KC-500, Method: PREINCUBATION). Further, the mutagenic call runs as follows: under setting [4], “inactive; negative”; (Test System: AMES SALMONELLA TYPHIMURIUM, Strain/Indicator: TA1537, Metabolic Activation: RAT, LIVER, S-9, KC-500, Method: PREINCUBATION) “inactive; negative”; (Test System: AMES SALMONELLA TYPHIMURIUM, Strain/Indicator: TA1538, Metabolic Activation: NONE, Method: PREINCUBATION) “inactive; negative”; (Test System: AMES SALMONELLA TYPHIMURIUM, Strain/Indicator: TA1538, Metabolic Activation: RAT, LIVER, S-9, KC-500, Method: PREINCUBATION) “inactive; negative”; (Test System: E. COLI, Strain/Indicator: WP2 UVRA, Metabolic Activation: NONE, Method: PREINCUBATION) “inactive; negative”; (Test System: E. COLI, Strain/Indicator: WP2 UVRA, Metabolic Activation: RAT, LIVER, S-9, KC-500, Method: PREINCUBATION) “inactive; negative”.
As to `COC(=O)/C(C#N)=C/c1ccc(Br)o1`, the mutagenic call under setting [1] was “inactive; negative”.
`CC(=O)Nc1cc2c(cc1Cl)-c1ccccc1C2`: the mutagenic call (Test System: AMES SALMONELLA TYPHIMURIUM, Strain/Indicator: TA98, Metabolic Activation: RAT, LIVER, S-9, AROCLOR 1254, Method: STANDARD PLATE) was “active; positive”.
Consider `Cc1c2ccccc2c2ccc3cccc4ccc1c2c43`, for which the mutagenic call is, setting by setting: (Test System: AMES SALMONELLA TYPHIMURIUM, Strain/Indicator: TA100, Metabolic Activation: RAT, NADPH-FORTIFIED HOMOGENIZED HEPATOCYTES, AROCLOR 1254, Method: PREINCUBATION) “active; positive”; (Test System: CHINESE HAMSTER V-79, Strain/Indicator: V-79/8-AZAGUANINE, Metabolic Activation: HAMSTER, EMBRYO, CELL-MEDIATED, Method: STANDARD PLATE) “active; positive”.
Regarding `CNC[C@H](O)c1ccc(O)c(O)c1`, the mutagenic call (Test System: AMES SALMONELLA TYPHIMURIUM, Strain/Indicator: TA98, Metabolic Activation: HAMSTER, LIVER, S-9, AROCLOR 1254 (10%), Method: PREINCUBATION) is “inactive; negative”; the mutagenic call under setting [1] was “inactive; negative”; the mutagenic call (Test System: AMES SALMONELLA TYPHIMURIUM, Strain/Indicator: TA98, Metabolic Activation: RAT, LIVER, S-9, AROCLOR 1254 (10%), Method: PREINCUBATION) was “inactive; negative”; the mutagenic call (Test System: AMES SALMONELLA TYPHIMURIUM, Strain/Indicator: TA100, Metabolic Activation: HAMSTER, LIVER, S-9, AROCLOR 1254 (10%), Method: PREINCUBATION) was “inactive; negative”; the mutagenic call under setting [2] is “inactive; negative”; the mutagenic call (Test System: AMES SALMONELLA TYPHIMURIUM, Strain/Indicator: TA100, Metabolic Activation: RAT, LIVER, S-9, AROCLOR 1254 (10%), Method: PREINCUBATION) is “inactive; negative”. The mutagenic call is “inactive; negative” (Test System: AMES SALMONELLA TYPHIMURIUM, Strain/Indicator: TA1535, Metabolic Activation: HAMSTER, LIVER, S-9, AROCLOR 1254 (10%), Method: PREINCUBATION); “inactive; negative” under setting [3]; “inactive; negative” (Test System: AMES SALMONELLA TYPHIMURIUM, Strain/Indicator: TA1535, Metabolic Activation: RAT, LIVER, S-9, AROCLOR 1254 (10%), Method: PREINCUBATION); “inactive; negative” (Test System: AMES SALMONELLA TYPHIMURIUM, Strain/Indicator: TA1537, Metabolic Activation: HAMSTER, LIVER, S-9, AROCLOR 1254 (10%), Method: PREINCUBATION); “inactive; negative” under setting [4]; “inactive; negative” (Test System: AMES SALMONELLA TYPHIMURIUM, Strain/Indicator: TA1537, Metabolic Activation: RAT, LIVER, S-9, AROCLOR 1254 (10%), Method: PREINCUBATION).
Regarding `CCCCN(CCCC)N=O`, the mutagenic call runs as follows: (Test System: AMES SALMONELLA TYPHIMURIUM, Strain/Indicator: TA100, Metabolic Activation: MOUSE, INTACT UROTHELIAL CELLS, Method: FLUCTUATION TEST) “active; positive”; (Test System: AMES SALMONELLA TYPHIMURIUM, Strain/Indicator: TA100, Metabolic Activation: RAT, INTACT UROTHELIAL CELLS, Method: FLUCTUATION TEST) “active; positive”; (Test System: AMES SALMONELLA TYPHIMURIUM, Strain/Indicator: TA100, Metabolic Activation: RAT, LIVER, S-9, AROCLOR 1254, Method: PREINCUBATION) “active; positive”; (Test System: AMES SALMONELLA TYPHIMURIUM, Strain/Indicator: TA100, Metabolic Activation: RAT, LIVER, S-9, KC500 OR PHENOBARBITAL, Method: LIQUID SUSPENSION) “active; positive”; (Test System: AMES SALMONELLA TYPHIMURIUM, Strain/Indicator: TA104, Metabolic Activation: RAT, LIVER, S-9, AROCLOR 1254, Method: PREINCUBATION) “active; positive”; (Test System: AMES SALMONELLA TYPHIMURIUM, Strain/Indicator: TA1530, Metabolic Activation: RAT, LIVER, S-9, Method: STANDARD PLATE) “active; positive”. For the same compound, the mutagenic call reads like this: under setting [3], “inactive; negative”; (Test System: AMES SALMONELLA TYPHIMURIUM, Strain/Indicator: TA1535, Metabolic Activation: RAT, LIVER, HEPATOCYTES, Method: PREINCUBATION) “inactive; negative”; (Test System: AMES SALMONELLA TYPHIMURIUM, Strain/Indicator: TA1535, Metabolic Activation: RAT, LIVER, MICROSOMES, KANECHLOR 500, Method: PREINCUBATION) “active; positive”; (Test System: AMES SALMONELLA TYPHIMURIUM, Strain/Indicator: TA1535, Metabolic Activation: RAT, LIVER, S-9, AROCLOR 1254, Method: PREINCUBATION) “active; positive”; (Test System: AMES SALMONELLA TYPHIMURIUM, Strain/Indicator: TA1535, Metabolic Activation: RAT, LIVER, S-9, AROCLOR, Method: PREINCUBATION) “active; positive”; (Test System: AMES SALMONELLA TYPHIMURIUM, Strain/Indicator: TA1535, Metabolic Activation: RAT, LIVER, S-9, SODIUM PHENOBARBITONE, Method: PREINCUBATION) “active; positive”. The mutagenic call was “inactive; negative” (Test System: AMES SALMONELLA TYPHIMURIUM, Strain/Indicator: TA1535, Metabolic Activation: RAT, LIVER, S-9, Method: PREINCUBATION); “inactive; negative” (Test System: AMES SALMONELLA TYPHIMURIUM, Strain/Indicator: TA1535ER, Metabolic Activation: NONE, Method: STANDARD PLATE); “active; positive” (Test System: AMES SALMONELLA TYPHIMURIUM, Strain/Indicator: TA1975, Metabolic Activation: RAT, LIVER, S-9, AROCLOR 1254, Method: PREINCUBATION); “active; positive” (Test System: AMES SALMONELLA TYPHIMURIUM, Strain/Indicator: YG7104ER, Metabolic Activation: NONE, Method: STANDARD PLATE); “active; positive” (Test System: AMES SALMONELLA TYPHIMURIUM, Strain/Indicator: YG7108ER, Metabolic Activation: NONE, Method: STANDARD PLATE); “active; positive” (Test System: CHINESE HAMSTER V-79, Strain/Indicator: V-79/8-AZAGUANINE, Metabolic Activation: RAT, LIVER, S-15, PHENOBARBITAL, Method: STANDARD PLATE). Also, the mutagenic call by setting is: (Test System: CHINESE HAMSTER V-79, Strain/Indicator: V-79/OUABAIN, Metabolic Activation: HAMSTER, HEPATOCYTES, Method: CELL-MEDIATED) “active; positive”; (Test System: E. COLI, Strain/Indicator: WP2 (HCR), Metabolic Activation: RAT, LIVER, MICROSOMES, KANECHLOR 500, Method: PREINCUBATION) “active; positive”; (Test System: E. COLI, Strain/Indicator: WP2 (HCR-), Metabolic Activation: RAT, LIVER, MICROSOMES, PHENOBARBITAL) “active; positive”.
With `Nc1ccc(Oc2cccc(Oc3ccc(N)cc3)c2)cc1`, the mutagenic call under setting [1] is “inactive; negative”; the mutagenic call (Test System: AMES SALMONELLA TYPHIMURIUM, Strain/Indicator: TA98, Metabolic Activation: RAT, LIVER, S-9, PCB, Method: PREINCUBATION) is “active; positive”; the mutagenic call under setting [2] is “inactive; negative”; the mutagenic call (Test System: AMES SALMONELLA TYPHIMURIUM, Strain/Indicator: TA100, Metabolic Activation: RAT, LIVER, S-9, PCB, Method: PREINCUBATION) was “active; positive”.
